Test system: Rattus norvegicus
Assay: The hypotensive activity expressed as rating of therapeutic index (1/30> MED/LD50 >=1/200).
Assay type: organism-based
Settings: in vivo

SMILES	TI rating
CCC(/N=C(\NC#N)Nc1ccncc1)C(C)C (stereo not given)	2
N#CN/C(=N\C(C1CC1)C1CC1)Nc1ccncc1	2
N#CN/C(=N\C1CCCC1)Nc1cccnc1	2
C=C(C)C/N=C(\NC#N)Nc1cccnc1	2
CCC(C)/N=C(\NC#N)Nc1cccnc1 (stereo not given)	2
N#CN/C(=N\c1ccccc1)Nc1cccnc1	2
CC(C)C(C)(C)/N=C(\NC#N)Nc1ccncc1	2
CC(C)CC(C)(C)/N=C(\NC#N)Nc1ccncc1	2
CC(C)C/N=C(\NC#N)Nc1cccnc1	2
N#CN/C(=N\Cc1ccccc1)Nc1ccncc1	2
CC(/N=C(\NC#N)Nc1ccncc1)C1CC1 (stereo not given)	2
CCC/N=C(\NC#N)Nc1cccnc1	2
CC(/N=C(\NC#N)Nc1ccncc1)c1ccccc1 (stereo not given)	2
N#CN/C(=N\C1CCCCC1)Nc1cccnc1	2
CCCC/N=C(\NC#N)Nc1cccnc1	2
N#CN/C(=N\Cc1ccccc1)Nc1cccnc1	2
CCCCC/N=C(\NC#N)Nc1cccnc1	2
N#CN/C(=N\C1CC1)Nc1cccnc1	2
CCC(CC)/N=C(\NC#N)Nc1ccncc1	2
N#CN/C(=N\c1cccnc1)N1CCCCC1	2
CC(C)CC/N=C(\NC#N)Nc1cccnc1	2
CC(C)(C)C(C)(C)/N=C(\NC#N)Nc1ccncc1	2
CC(C)(C)C/N=C(\NC#N)Nc1ccncc1	2
N#CN/C(=N\Cc1ccco1)Nc1cccnc1	2
N#CN/C(=N\CCc1ccccc1)Nc1ccncc1	2

Test system: Rattus norvegicus
Assay: The hypotensive activity expressed as rating of therapeutic index (MED/LD50 >=1/30).
Assay type: organism-based
Settings: in vivo

SMILES	TI rating
CC(C)(C)CC(C)(C)/N=C(\NC#N)Nc1cccnc1	1
CC1(/N=C(\NC#N)Nc2cccnc2)CCC1	1
N#CNC(=N)Nc1cccnc1	1
CC(C)C(/N=C(\NC#N)Nc1ccncc1)C(C)C	1
CCN(CC)CC/N=C(\NC#N)Nc1cccnc1	1
CCC(C)C(C)/N=C(\NC#N)Nc1ccncc1 (stereo not given)	1
N#CN/C(=N\CCc1ccccc1)Nc1cccnc1	1
COc1ccc(/N=C(\NC#N)NC(C)(C)C)c(OC)n1	1
Cc1cccc(C)c1/N=C(\NC#N)Nc1cccnc1	1
Cc1cc(C)c(/N=C(\NC#N)NC(C)(C)C)c(C)n1	1
CC(C)(C)/N=C(\NC#N)Nc1ccccn1	1
CCC(C)(C)/N=C(\NC#N)Nc1c(C)cc(C)nc1C	1
N#CN/C(=N\C12C[C@H]3C[C@@H](C1)C[C@@H](C2)C3)Nc1cccnc1	1
CC(C)(NC(=NC#N)Nc1cccnc1)c1ccccc1	1
CCOCC/N=C(\NC#N)Nc1cccnc1	1
COc1ccc(N/C(=N/C(C)(C)C)NC#N)cn1	1

SMILES	TI rating
CCCCC(CC)C/N=C(\NC#N)Nc1cccnc1 (stereo not given)	1
CC(C)CC(C)/N=C(\NC#N)Nc1ccncc1 (stereo not given)	1
C/N=C(\NC#N)Nc1cccnc1	1
CCC(CC)/N=C(\NC#N)Nc1cccnc1	1
CCCCCCC/N=C(\NC#N)Nc1cccnc1	1
N#CN/C(=N\C1CCCCC1)Nc1ccncc1	1
CC(C)CCC(C)/N=C(\NC#N)Nc1ccncc1 (stereo not given)	1
Cc1cc(C)nc(N/C(=N/C(C)(C)C)NC#N)c1	1
CC(C)(C)CC(C)(C)/N=C(\NC#N)Nc1ccncc1	1
CC(C)(C)/N=C(\NC#N)Nc1ccc(Cl)cn1	1
N#CN/C(=N\c1ccccc1)Nc1ccncc1	1
N#CN/C(=N\C1CCCCC1)Nc1ccccn1	1
CC(C)(C)C(C)(C)/N=C(\NC#N)Nc1cccnc1	1
N#CN/C(=N\CC1CCCO1)Nc1cccnc1 (stereo not given)	1
N#CN/C(=N\C1CCCCCCC1)Nc1ccncc1	1
CC(C)(C)/N=C(\NC#N)Nc1ccc(Cl)nc1Cl	1

Test system: Rattus norvegicus
Assay: The hypotensive activity expressed as rating of therapeutic index (MED/LD50 <1/200).
Assay type: organism-based
Settings: in vivo

SMILES	TI rating
CC(C)(C)/N=C(\NC#N)Nc1cncc(Br)c1	3
CC(/N=C(/NC#N)Nc1cccnc1)C(C)(C)C (stereo not given)	3
CCC(C)(C)/N=C(\NC#N)Nc1ccncc1	3
CCC(C)(CC)/N=C(\NC#N)Nc1ccncc1	3
CC(C)(C)C/N=C(/NC#N)Nc1cccnc1	3
CC(C)(C)/N=C(\NC#N)Nc1cccnc1Cl	3
CC(C)(C)/N=C(/NC#N)Nc1cccnc1	3
CC(C)(C)/N=C(\NC#N)Nc1ccncc1	3
CCC(CC)(CC)/N=C(\NC#N)Nc1ccncc1	3
CC(C)/N=C(\NC#N)Nc1cccnc1	3
CCCC(C)(C)/N=C(\NC#N)Nc1cccnc1	3
CCC(C)(CC)/N=C(\NC#N)Nc1cccnc1	3
CCC(C)(C)NC(=NC#N)Nc1cccnc1	3
N#CN/C(=N\C12C[C@H]3C[C@@H](C1)C[C@@H](C2)C3)Nc1ccncc1	3
CCC(CC)(CC)/N=C(\NC#N)Nc1cccnc1	3
CC(C)CC(C)(C)/N=C(\NC#N)Nc1cccnc1	3
CC(C)C(C)(C)/N=C(\NC#N)Nc1cccnc1	3
CC(C)C(/N=C(\NC#N)Nc1cccnc1)C(C)C	3
